Measured values: patent US8574831B2, “Mutational profiles in HIV-1 reverse transcriptase correlated with phenotypic drug resistance” (Virco N.V., priority 2000, dated 2013)

Tested on: HIV with mutations in the HIV protease sequence
Assay: Phenotypic fold resistance to protease inhibitors, protease mutations 84A/84L/84C/54M/54L/54V in a background (Examples 8-13)
Format: cell-based, HIV-1
In short: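 Recombinant-virus phenotyping: patient-derived PR/RT sequences amplified by PCR and recombined in CD4+ T cells into an HXB2 proviral clone deleted for those sequences. Chimeric viruses grown across drug concentrations; IC50 determined, and fold-resistance expressed as IC50 ratio versus wild-type susceptible laboratory HIV-1 tested in parallel.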

## CC(C)(C)NC(=O)[C@@H]1C[C@@H]2CCCC[C@@H]2CN1C[C@@H](O)[C@H](Cc1ccccc1)NC(=O)[C@H](CC(N)=O)NC(=O)c1ccc2ccccc2n1 [Saquinavir, saquinavir]
Table 12, V055199, genotype 10I + 33F + 54M + 90M
  Fold change in IC50: 5.6 fold
Table 13, V19263, genotype 77I
  Fold change in IC50: 0.3 fold
Table 13, V20160, genotype WT
  Fold change in IC50: 0.9 fold
Table 13, V021667, genotype 10I
  Fold change in IC50: 0.9 fold
Table 13, V030496, genotype 10I + 77I
  Fold change in IC50: 0.3 fold
Table 13, V048868, genotype 10I + 54L + 71V + 77I + 90M
  Fold change in IC50: 16.5 fold
Table 13, V048874, genotype 10I + 33F + 54L + 71V + 77I + 90M
  Fold change in IC50: 4.6 fold
Table 13, V048875, genotype 10I + 33F + 54L + 71V + 77I + 90M
  Fold change in IC50: 12.0 fold
Table 13, V048877, genotype 10I + 33F + 77I + 90M
  Fold change in IC50: 1.5 fold
Table 13, V048880, genotype 10I + 33F + 77I + 90M
  Fold change in IC50: 2.7 fold
Table 13, V052940, genotype 71V
  Fold change in IC50: 0.8 fold
Table 13, V052942, genotype 10I + 71V
  Fold change in IC50: 0.8 fold
Table 13, V052943, genotype 10I + 90M
  Fold change in IC50: 1.1 fold
Table 13, V052944, genotype 10I + 90M
  Fold change in IC50: 0.7 fold
Table 13, V052945, genotype 77I + 90M
  Fold change in IC50: 1.4 fold
Table 13, V052946, genotype 71V + 90M
  Fold change in IC50: 1.4 fold
Table 13, V052947, genotype 10I + 77I + 90M
  Fold change in IC50: 3.9 fold
Table 13, V052948, genotype 10I + 71V + 90M
  Fold change in IC50: 4.8 fold
Table 13, V052949, genotype 10I + 71V + 77I + 90M
  Fold change in IC50: 2.1 fold
Table 13, V052950, genotype 33F
  Fold change in IC50: 1.2 fold
Table 13, V052951, genotype 33F + 77I
  Fold change in IC50: 0.4 fold
Table 13, V052953, genotype 10I + 33F + 77I
  Fold change in IC50: 1.2 fold
Table 13, V052954, genotype 33F + 77I + 90M
  Fold change in IC50: 1.7 fold
Table 13, V052955, genotype 33F + 71V + 90M
  Fold change in IC50: 20.4 fold
Table 13, V052968, genotype 10L/I + 33F/L + 54L + 77I
  Fold change in IC50: 1.5 fold
Table 13, V052969, genotype 10I + 33F + 54L + 90M
  Fold change in IC50: 1.4 fold
Table 13, V052970, genotype 54L
  Fold change in IC50: 0.7 fold
Table 13, V052971, genotype 10I + 54L
  Fold change in IC50: 0.7 fold
Table 13, V052972, genotype 54L + 77I
  Fold change in IC50: 1.0 fold
Table 13, V052973, genotype 10I + 54L + 77I
  Fold change in IC50: 0.8 fold
Table 13, V052974, genotype 10I + 54L + 90M
  Fold change in IC50: 1.1 fold
Table 13, V052975, genotype 10I + 54L + 71V + 90M
  Fold change in IC50: 24.2 fold
Table 13, V052976, genotype 10I + 54L + 71V + 77I + 90M
  Fold change in IC50: 1.8 fold
Table 13, V053832, genotype 10I + 33F
  Fold change in IC50: 0.5 fold
Table 13, V053854, genotype 54L + 71V
  Fold change in IC50: 0.9 fold
Virco ID 214846, genotype 10I + 33F + 54V + 71V + 77I + 90M, vs mean IC50 of wild type laboratory HIV strain
  Fold change in IC50: 27.8 fold
Virco ID V021667, genotype 10I, vs mean IC50 of wild type laboratory HIV strain
  Fold change in IC50: 0.9 fold
Virco ID V030496, genotype 10I + 77I, vs mean IC50 of wild type laboratory HIV strain
  Fold change in IC50: 0.3 fold
Virco ID V048876, genotype 33F + 54V + 77I + 90M, vs mean IC50 of wild type laboratory HIV strain
  Fold change in IC50: 1.5 fold
Virco ID V048877, genotype 10I + 33F + 77I + 90M, vs mean IC50 of wild type laboratory HIV strain
  Fold change in IC50: 1.5 fold
Virco ID V048880, genotype 10I + 33F + 77I + 90M, vs mean IC50 of wild type laboratory HIV strain
  Fold change in IC50: 2.7 fold
Virco ID V052940, genotype 71V, vs mean IC50 of wild type laboratory HIV strain
  Fold change in IC50: 0.8 fold
Virco ID V052942, genotype 10I + 71V, vs mean IC50 of wild type laboratory HIV strain
  Fold change in IC50: 0.8 fold
Virco ID V052943, genotype 10I + 90M, vs mean IC50 of wild type laboratory HIV strain
  Fold change in IC50: 1.1 fold
Virco ID V052944, genotype 10I + 90M, vs mean IC50 of wild type laboratory HIV strain
  Fold change in IC50: 0.7 fold
Virco ID V052946, genotype 71V + 90M, vs mean IC50 of wild type laboratory HIV strain
  Fold change in IC50: 1.4 fold
Virco ID V052947, genotype 10I + 77I + 90M, vs mean IC50 of wild type laboratory HIV strain
  Fold change in IC50: 3.9 fold
Virco ID V052948, genotype 10I + 71V + 90M, vs mean IC50 of wild type laboratory HIV strain
  Fold change in IC50: 4.8 fold
Virco ID V052949, genotype 10I + 71V + 77I + 90M, vs mean IC50 of wild type laboratory HIV strain
  Fold change in IC50: 2.1 fold
Virco ID V052950, genotype 33F, vs mean IC50 of wild type laboratory HIV strain
  Fold change in IC50: 1.2 fold
Virco ID V052951, genotype 33F + 77I, vs mean IC50 of wild type laboratory HIV strain
  Fold change in IC50: 0.4 fold
Virco ID V052953, genotype 10I + 33F + 77I, vs mean IC50 of wild type laboratory HIV strain
  Fold change in IC50: 1.2 fold
Virco ID V052954, genotype 33F + 77I + 90M, vs mean IC50 of wild type laboratory HIV strain
  Fold change in IC50: 1.7 fold
Virco ID V052955, genotype 33F + 71V + 90M, vs mean IC50 of wild type laboratory HIV strain
  Fold change in IC50: 20.4 fold
Virco ID V052957, genotype 10I + 33F + 54V + 90M, vs mean IC50 of wild type laboratory HIV strain
  Fold change in IC50: 1.6 fold
Virco ID V052958, genotype 10I + 33F + 54V + 77I + 90M, vs mean IC50 of wild type laboratory HIV strain
  Fold change in IC50: 1.0 fold
Virco ID V052959, genotype 10I + 33F + 54V + 77I + 90M, vs mean IC50 of wild type laboratory HIV strain
  Fold change in IC50: 1.0 fold
Virco ID V052960, genotype 10I + 33F + 54V + 71V + 90M, vs mean IC50 of wild type laboratory HIV strain
  Fold change in IC50: 21.8 fold
Virco ID V052961, genotype 54V, vs mean IC50 of wild type laboratory HIV strain
  Fold change in IC50: 1.0 fold
Virco ID V052962, genotype 10I + 54V, vs mean IC50 of wild type laboratory HIV strain
  Fold change in IC50: 0.9 fold
Virco ID V052963, genotype 54V + 77I + 90M, vs mean IC50 of wild type laboratory HIV strain
  Fold change in IC50: 1.3 fold
Virco ID V052964, genotype 54V + 71V + 90M, vs mean IC50 of wild type laboratory HIV strain
  Fold change in IC50: 1.4 fold
Virco ID V052965, genotype 10I + 54V + 77I + 90M, vs mean IC50 of wild type laboratory HIV strain
  Fold change in IC50: 6.3 fold
Virco ID V052966, genotype 10I + 54V + 71V + 90M, vs mean IC50 of wild type laboratory HIV strain
  Fold change in IC50: 28.6 fold
Virco ID V052967, genotype 10I + 54V + 71V + 77I + 90M, vs mean IC50 of wild type laboratory HIV strain
  Fold change in IC50: 0.6 fold
Virco ID V053358, genotype 33F + 54V + 77I + 90M, vs mean IC50 of wild type laboratory HIV strain
  Fold change in IC50: 1.3 fold
Virco ID V053831, genotype 33F + 54V, vs mean IC50 of wild type laboratory HIV strain
  Fold change in IC50: 1.0 fold
Virco ID V053832, genotype 10I + 33F, vs mean IC50 of wild type laboratory HIV strain
  Fold change in IC50: 0.5 fold
